From patent publication US6280712A, “Sun screen agents” (Cognis Deutschland GmbH, priority 1997, dated 2001)

Key:
Assay type in all cases: physicochemical
Zeidler spreading value = test: Zeidler spreading value
Source text: in which R^1 and R^2 independently of one another represent linear or branched alkyl and/or alkenyl groups containing 1 to 22 carbon atoms, with the proviso that they contain in all at least 12, preferably 12 to 50 and more preferably 15 to 25 carbon atoms. The compounds are obtained by transesterifying dimethyl or diethyl carbonate, for example, with the corresponding fatty alcohols in known manner. Accordingly, the fatty carbonates may be symmetrical or non-symmetrical. However, carbonates in which R^1 and R^2 are the same and represent C6-16 alkyl groups are preferably used. Transesterification products of dimethyl or diethyl carbonate with octanol, 2-ethylhexyl alcohol, decanol, cetyl alcohol, cetearyl alcohol, stearyl alcohol, isostearyl alcohol, oleyl alcohol, behenyl alcohol and/or erucyl alcohol in the form of their mono- and diesters or technical mixtures and Guerbet alcohols containing 8 to 24 carbon atoms are particularly preferred. […] The dialkyl carbonates may be used in quantities of 1 to 30% by weight, preferably 5 to 20% by weight and more preferably 8 to 10% by weight, based on the composition.

[1] = Dissolving power for UV filters (statement in words); details: for dissolving properties for UV filters: general statement; for dissolving power for UV filters: in contrast to other high-spreading oils, for example dialkyl ethers or cyclomethicone
[2] = High-spreading property (statement in words); details: general statement
[3] = Volatility of the oil (remark in Table 1); details: remark at Zeidler spreading value

Compound	Zeidler spreading value (Zeidler spreading value)	dissolving properties for UV filters [1]	dissolving power for UV filters [1]	spreading [2]	volatility [3]
CCCCC(CC)COC(=O)OCC(CC)CCCC (stereo not shown) [di-2-ethylhexyl carbonate]	1600 mm^2/10 mins	excellent dissolving properties for UV filters	distinctly higher dissolving power for UV filters	high-spreading	–
CCCCCCCCOC(=O)OCCCCCCCC [di-n-octyl carbonate]	1600 mm^2/10 mins	excellent dissolving properties for UV filters	distinctly higher dissolving power for UV filters	high-spreading	–
Cyclomethicone [reference compound]	> 1600 mm^2/10 mins	–	–	–	volatile
